{"source": "patent US6946453B2", "about": "“4-dedimethylaminotracycline derivatives” (CollaGenex Pharmaceuticals, Inc., priority 1998, dated 2005)"}
{"tested_on": "BALB/c 3T3 (CCL-163) cells", "conditions": "not given", "experimental": "(§1) The assay used to assess phototoxicity is the so-called 3T3 Phototoxicity Assay. The assay compares the cytotoxicity of a series of doses of a test compound in the presence and absence of UVA/visible light.\n(§2) Briefly, serial dilutions of a test compound are prepared, and are incubated with 3T3 cells in two 96-well plates. Following an initial incubation, the cells in one plate, the test cells receiving both the chemical and light, are exposed to UVA/visible light. In the second plate, the test cells receiving only the test chemical were treated the same way, except they are kept in the dark for the same amount of time.\n(§3) Twenty-four hours after exposure, the test cells and the control cells are then incubated with neutral red dye. Neutral red dye is used to measure the relative number of living cells in each well. Live cells are stained with the dye while dead cells are not.\n(§4) Phototoxicity is measured by the relative toxicity between the doses with and without light exposure following published guidelines.\n(§5) Streptomycin sulfate ([…]) and penicillin (100 IU/ml) were added to the medium after the cells were treated with test article in 96-well plates.\n(§6) Serial dilutions of the tetracycline derivatives were prepared in DMSO at concentrations 100× to final testing concentration. The COL dilutions in DMSO were then diluted in Hanks' Balanced Salt Solution (HBSS) for application to the cells. The final DMSO concentration was 1% in treated and control cultures. A dose range finding assay is conducted with eight serial dilutions covering a range of 100-0.03 μg/ml in half log steps. Definitive assays are conducted with 6-8 serial dilutions prepared in quarter log steps, centered on the expected 50% toxicity point as determined in the dose range finding assay. One hundred 100 μg/ml was the highest dose recommended to prevent false negative results from UV absorption by the dosing solutions. One dose range finding and at least two definitive trials were performed on each tetracycline derivative and control compound.\n(§7) Controls: Each assay included both negative (solvent) and positive controls. Twelve wells of negative control cultures were used on each 96-well plate. Chlorpromazine (Sigma Chemicals) was used as the positive control and was prepared and dosed like the test tetracycline derivatives.\n(§8) Solar Simulator: A Dermalight SOL 3 solar simulator, equipped with a UVA H1 filter (320-400 nm), was adjusted to the appropriate height. Measurement of energy through the lid of a 96-well microtiter plate was carried out using a calibrated UV radiometer UVA sensor. Simulator height was adjusted to deliver 1.7±0.1 mW/cm^2 of UVA energy (resulting dose was 1 J/cm^2 per 10 minutes of exposure).\n(§9) Phototoxicity Assay: Duplicate plates were prepared for each test material by seeding 10^4 3T3 cells per well in complete medium 24 hours before treatment. Prior to treatment, the medium was removed, and the cells washed once with 125 μl of prewarmed HBSS. Fifty μl of prewarmed HBSS were added to each well. Fifty μl of each test article dilution were added to the appropriate wells and the plates returned to the incubator for approximately one hour. Six wells were treated with each dose of test or control article on each plate. Following the 1 hr incubation, the plates designated for the photo irradiation were exposed (with the lid on) to 1.7±0.1 mW/cm^2 UVA light for 50±2 minutes at room temperature resulting in an irradiation dose of 5 J/cm^2. Duplicate plates, designated for the measurement of cytotoxicity without light, were kept in the dark room temperature for 50±2 minutes. After the 50 minute exposure period (with or without light) the test article dilutions were decanted from the plates and the cells washed once with 125 μl of HBSS. One hundred μl of medium were added to all wells and the cells incubated as above for 24±1 hours."}
{"compound": "O=C(NCN1CCCC1)C1=C(O)CC2CC3Cc4cccc(O)c4C(=O)C3=C(O)C2(O)C1=O", "note": "(stereo not shown) [COL 312, 2-CONHCH2-pyrrolidin-1-yl-6-demethyl-6-deoxy-4-dedimethylaminotetracycline]", "PIF 2 (photoirritancy factor, IC50(-UVA)/IC50(+UVA), OECD draft guideline 432)": 75.11}
{"compound": "CN(C)c1ccc(O)c2c1CC1CC3CC(O)=C(C(N)=O)C(=O)C3(O)C(O)=C1C2=O", "note": "(stereo not shown) [COL 10, 4-dedimethylaminominocycline]", "PIF 2 (photoirritancy factor, IC50(-UVA)/IC50(+UVA), OECD draft guideline 432)": 2.04}
{"compound": "O=C(NCN1CCCCC1)C1=C(O)CC2CC3Cc4cccc(O)c4C(=O)C3=C(O)C2(O)C1=O", "note": "(stereo not shown) [COL 313, 2-CONHCH2-piperidin-1-yl-6-demethyl-6-deoxy-4-dedimethylaminotetracycline]", "PIF 2 (photoirritancy factor, IC50(-UVA)/IC50(+UVA), OECD draft guideline 432)": 58.22}
{"compound": "NC(=O)C1=C(O)C[C@@H]2C[C@@H]3Cc4cccc(O)c4C(=O)C3=C(O)[C@]2(O)C1=O", "note": "[COL 3, 6-demethyl-6-deoxy-4-dedimethylaminotetracycline]", "PIF 2 (photoirritancy factor, IC50(-UVA)/IC50(+UVA), OECD draft guideline 432)": 84.72}
{"compound": "CN(C)c1ccc2c(c1O)C(=O)C1=C(O)C3(O)C(=O)C(C(N)=O)=C(O)CC3CC1C2", "note": "(stereo not shown) [COL 306, 9-dimethylamino-6-demethyl-6-deoxy-4-dedimethylaminotetracycline]", "PIF 2 (photoirritancy factor, IC50(-UVA)/IC50(+UVA), OECD draft guideline 432)": 1.56}
{"compound": "CN(C)CC(=O)Nc1ccc2c(c1O)C(=O)C1=C(O)C3(O)C(=O)C(C(N)=O)=C(O)CC3CC1C2", "note": "(stereo not shown) [COL 309, 9-dimethylaminoacetamido-6-demethyl-6-deoxy-4-dedimethylaminotetracycline]", "PIF 2 (photoirritancy factor, IC50(-UVA)/IC50(+UVA), OECD draft guideline 432)": 12.87}
{"compound": "CC1c2cccc(O)c2C(=O)C2=C(O)C3(O)C(=O)C(C(=O)NCN4CCCC4)=C(O)CC3C(O)C21", "note": "(stereo not shown) [COL 807, 2-CONHCH2-pyrrolidin-1-yl-4-dedimethylaminodoxycycline]", "PIF 1 (photoirritancy factor, IC50(-UVA)/IC50(+UVA), earlier software)": 40.4}
{"compound": "O=C(NCN1CCNCC1)C1=C(O)CC2CC3Cc4cccc(O)c4C(=O)C3=C(O)C2(O)C1=O", "note": "(stereo not shown) [COL 315, 2-CONHCH2-piperazin-1-yl-6-demethyl-6-deoxy-4-dedimethylaminotetracycline]", "PIF 2 (photoirritancy factor, IC50(-UVA)/IC50(+UVA), OECD draft guideline 432)": 35.30}
{"compound": "NC(=O)C1=C(O)CC2CC3Cc4ccc([N+](=O)[O-])c(O)c4C(=O)C3=C(O)C2(O)C1=O", "note": "(stereo not shown) [COL 303, 9-nitro-6-demethyl-6-deoxy-4-dedimethylaminotetracycline]", "PIF 2 (photoirritancy factor, IC50(-UVA)/IC50(+UVA), OECD draft guideline 432)": 13.82}
{"compound": "NC(=O)C1=C(O)CC2CC3Cc4c([N+](=O)[O-])ccc(O)c4C(=O)C3=C(O)C2(O)C1=O", "note": "(stereo not shown) [COL 302, 7-nitro-6-demethyl-6-deoxy-4-dedimethylaminotetracycline]", "PIF 2 (photoirritancy factor, IC50(-UVA)/IC50(+UVA), OECD draft guideline 432)": 23.32}
{"compound": "CN(C)c1cc([N+](=O)[O-])c(O)c2c1CC1CC3CC(O)=C(C(N)=O)C(=O)C3(O)C(O)=C1C2=O", "note": "(stereo not shown) [COL 1002, 9-nitro-4-dedimethylaminominocycline]", "PIF 2 (photoirritancy factor, IC50(-UVA)/IC50(+UVA), OECD draft guideline 432)": 1.35}
{"compound": "O=C(NCN1CCOCC1)C1=C(O)CC2CC3Cc4cccc(O)c4C(=O)C3=C(O)C2(O)C1=O", "note": "(stereo not shown) [COL 314, 2-CONHCH2-morpholin-1-yl-6-demethyl-6-deoxy-4-dedimethylaminotetracycline]", "PIF 2 (photoirritancy factor, IC50(-UVA)/IC50(+UVA), OECD draft guideline 432)": 89.48}
{"compound": "CC1c2cccc(O)c2C(=O)C2=C(O)C3(O)C(=O)C(C(N)=O)=C(O)CC3C(O)C21", "note": "(stereo not shown) [COL 8, 4-dedimethylaminodoxycycline]", "PIF 2 (photoirritancy factor, IC50(-UVA)/IC50(+UVA), OECD draft guideline 432)": 82.61}
{"tested_on": "BALB/c 3T3 (CCL-163) cells", "conditions": "BALB/c 3T3 cells, cytotoxicity with vs without 5 J/cm^2 UVA, neutral red; OECD draft guideline 432 software", "experimental": "as §1, §2, §3, §4, §5, §6, §7, §8, §9"}
{"compound": "COL 2", "MPE (mean photo effect)": 0.005}
{"tested_on": "BALB/c 3T3 (CCL-163) cells", "conditions": "mouse, 110 min", "experimental": "as §1, §2, §3, §4, §5, §6, §7, §8, §9"}
{"compound": "CN(C)CCCN1c2ccccc2Sc2ccc(Cl)cc21", "note": "[Chlorpromazine, reference compound]", "PIF 2 (photoirritancy factor, IC50(-UVA)/IC50(+UVA), OECD draft guideline 432)": 40.38}
{"compound": "C[C@H]1c2cccc(O)c2C(=O)C2=C(O)[C@]3(O)C(=O)C(C(N)=O)=C(O)[C@@H](N(C)C)[C@@H]3[C@@H](O)[C@@H]21", "note": "[Doxycycline, doxycycline, reference compound]", "PIF 2 (photoirritancy factor, IC50(-UVA)/IC50(+UVA), OECD draft guideline 432)": 26.71}
